Results reported in US5498795A, “Acetylenes disubstituted with hydroxyaryl and aryl or heteroaryl groups having retinoid-like biological activity” (Allergan, Inc., priority 1994, dated 1996).

System: ornithine decarboxylase (ODC)
Assay: ODC assay: inhibition of TPA induction of ornithine decarboxylase
Format: in vivo
Excerpt: The retinoic acid-like activity of these compounds is confirmed through the classic measure of retinoic acid activity involving the effects of retinoic acid on ornithine decarboxylase. The original work on the correlation between retinoic acid and decrease in cell proliferation was done by Verma & Boutwell, Cancer Research, 1977, 37,2196-2201. That reference discloses that ornithine decarboxylase (ODC) activity increased precedent to polyamine biosynthesis. It has been established elsewhere that increases in polyamine synthesis can be correlated or associated with cellular proliferation. Thus, if ODC activity could be inhibited, cell hyperproliferation could be modulated. Although all cases for ODC activity increases are unknown, it is known that 12-0-tetradecanoylphorbol-13-acetate (TPA) induces ODC activity. Retinoic acid inhibits this induction of ODC activity by TPA. […] Activity of exemplary compounds of the present invention in the above-described ODC assay is disclosed in Table 2 which provides either […] (or other measured per cent inhibition at the indicated concentration) for the respective exemplary compound.

SMILES | % of inhib (conc 300) [%] | % of inhib (conc 100) [%]
O=C(O)c1ccc(C#Cc2ccc(C34CC5CC(CC(C5)C3)C4)c(O)c2)nc1 [Compound 23, 6-[2-[[2-(1-adamantyl)-1-hydroxy]-5-phenyl]-ethyn-1-yl]nicotinic acid] | 55 | 
CC(C)(C)c1ccc(C#Cc2ccc(C(=O)O)cn2)cc1O [Compound 20, 6-[2-[[2-t-Butyl-1-hydroxy]-5-phenyl]ethyn-1-yl]nicotinic acid] |  | 64
